Reference: ChEMBL document CHEMBL5506025, “Discovery of LLC0424 as a Potent and Selective in Vivo NSD2 PROTAC Degrader” (J Med Chem, 2024)
Active and inactive are the calls of the source. The rule behind the calls is not given here.

Columns and labels:
[1] = target: T1, Protein cereblon/Histone-lysine N-methyltransferase NSD2 (Homo sapiens) (UniProt O96028+Q96SW2); test: In vivo PROTAC activity at CRBN/NSD2 in SCID mouse xenografted with human SEM cells assessed as downregulation of NSD2 level at 60 mg/kg, ip for 5 days by immunohistochemical analysis; type: functional, organism-based; conditions: time 5.0 day
[2] = target: T1, Protein cereblon/Histone-lysine N-methyltransferase NSD2 (Homo sapiens); test: PROTAC activity at CRBN/NSD2 in human SEM cells assessed as decrease in NSD2 level at 2 uM measured after 4 hrs by TMT-labeled quantitative proteomics assay; type: cell-based
[3] = target: T1, Protein cereblon/Histone-lysine N-methyltransferase NSD2 (Homo sapiens); test: PROTAC activity at CRBN/NSD2 in human SEM cells assessed as induction of NSD2 degradation incubated for 24 hrs by immunoblot analysis; type: cell-based; conditions: dose 0.001-10 µM
[4] = target: T1, Protein cereblon/Histone-lysine N-methyltransferase NSD2 (Homo sapiens); test: PROTAC activity at CRBN/NSD2 in human RPMI 8402 cells assessed as downregulation of H3K36Me2 level at 2 uM measured upto 24 hrs hrs by immunoblot analysis; type: cell-based
[5] = target: T1, Protein cereblon/Histone-lysine N-methyltransferase NSD2 (Homo sapiens); test: In vivo PROTAC activity at CRBN/NSD2 in SCID mouse xenografted with human 22Rv1 cells assessed as downregulation of NSD2 level at 60 mg/kg, iv for 5 days by Western blot analysis; type: functional, organism-based; conditions: CWR22R, time 5.0 day
SEM cells [6] = test: Downregulation of TNFAIP3 gene expression in human SEM cells measured after 14 days by RNA sequencing assay; type: functional, cell-based; conditions: time 14.0 day
[7] = target: T1, Protein cereblon/Histone-lysine N-methyltransferase NSD2 (Homo sapiens); test: PROTAC activity at CRBN/NSD2 in human RPMI 8402 cells assessed as induction of NSD2 degradation at 2 uM measured after 4 to 8 hrs hrs by immunoblot analysis; type: cell-based; conditions: time 4-8 hrs
[8] = target: Cereblon/Casein kinase I alpha (Homo sapiens) (UniProt P48729+Q96SW2); test: PROTAC activity at CRBN/CK1alpha in human SEM cells assessed as decrease in CK1alpha level at 2 uM measured upto 8 hrs by immunoblot analysis; type: cell-based
[9] = target: T2, Protein cereblon/Eukaryotic peptide chain release factor GTP-binding subunit ERF3A (Homo sapiens) (UniProt Q96SW2+P15170); test: PROTAC activity at CRBN/GSPT1 in human SEM cells assessed as decrease in GSPT1 level at 2 uM measured after 12 hrs by immunoblot analysis; type: cell-based
[10] = target: Protein cereblon/Zinc finger protein Aiolos (Homo sapiens) (UniProt Q96SW2+Q9UKT9); test: PROTAC activity at CRBN/IKZF3 in human SEM cells assessed as decrease in IKZF3 level at 2 uM measured upto 8 hrs by immunoblot analysis; type: cell-based
[11] = target: Protein cereblon/Histone-lysine N-methyltransferase NSD3 (Homo sapiens) (UniProt Q9BZ95+Q96SW2); test: PROTAC activity at CRBN/NSD3 in human SEM cells assessed as decrease in NSD3 level at 2 uM measured upto 8 hrs by immunoblot analysis; type: cell-based
[12] = target: T1, Protein cereblon/Histone-lysine N-methyltransferase NSD2 (Homo sapiens); test: In vivo PROTAC activity at CRBN/NSD2 in SCID mouse xenografted with human SEM cells assessed as downregulation of NSD2 level at 60 mg/kg, ip for 5 days by Western blot analysis; type: functional, organism-based; conditions: time 5.0 day
[13] = target: T1, Protein cereblon/Histone-lysine N-methyltransferase NSD2 (Homo sapiens); test: PROTAC activity at CRBN/NSD2 in human SEM cells assessed as induction of NSD2 degradation at 2 uM measured after 12 to 24 hrs by immunoblot analysis; type: cell-based; conditions: time 12-24 hrs
[14] = target: T2, Protein cereblon/Eukaryotic peptide chain release factor GTP-binding subunit ERF3A (Homo sapiens); test: PROTAC activity at CRBN/GSPT1 in human VCaP cells assessed as decrease in GSPT1 level at 2 uM measured upto 8 hrs by immunoblot analysis; type: cell-based
[15] = target: T1, Protein cereblon/Histone-lysine N-methyltransferase NSD2 (Homo sapiens); test: In vivo PROTAC activity at CRBN/NSD2 in SCID mouse xenografted with human SEM cells assessed as downregulation of NSD2 level at 60 mg/kg, iv for 5 days by immunohistochemical analysis; type: functional, organism-based; conditions: time 5.0 day
RPMI 8402 = test: Cytotoxicity against human RPMI 8402 cells assessed as inhibition of cell growth at 2 uM measured after 9 days by Celltiter-glo assay; type: functional, cell-based; conditions: time 9.0 day
[16] = target: T1, Protein cereblon/Histone-lysine N-methyltransferase NSD2 (Homo sapiens); test: PROTAC activity at CRBN/NSD2 in human VCaP cells assessed as decrease in NSD2 level at 2 uM measured after 6 hrs by TMT-labeled quantitative proteomics assay; type: cell-based
[17] = target: T1, Protein cereblon/Histone-lysine N-methyltransferase NSD2 (Homo sapiens); test: PROTAC activity at CRBN/NSD2 in human RPMI 8402 cells assessed as induction of NSD2 degradation at 0.5 to 2 uM measured after 24 hrs by immunoblot analysis; type: cell-based; conditions: dose 0.5-2 µM
[18] = target: T1, Protein cereblon/Histone-lysine N-methyltransferase NSD2 (Homo sapiens); test: PROTAC activity at CRBN/NSD2 in human RPMI 8402 cells assessed as induction of NSD2 degradation at 2 uM pretreated with MLN4924 for 2 hrs followed by compound addition and measured after 6 to 12 hrs by Western blot analysis; type: cell-based; conditions: time 6-12 hrs
[19] = target: T1, Protein cereblon/Histone-lysine N-methyltransferase NSD2 (Homo sapiens); test: In vivo PROTAC activity at CRBN/NSD2 in SCID mouse xenografted with human SEM cells assessed as downregulation of NSD2 level at 60 mg/kg, iv for 5 days by Western blot analysis; type: functional, organism-based; conditions: time 5.0 day
[20] = target: Cereblon/Ikaros (Homo sapiens) (UniProt Q96SW2+Q13422); test: PROTAC activity at CRBN/IKZF1 in human SEM cells assessed as decrease in IKZF1 level at 2 uM measured upto 8 hrs by immunoblot analysis; type: cell-based
[21] = target: T2, Protein cereblon/Eukaryotic peptide chain release factor GTP-binding subunit ERF3A (Homo sapiens); test: PROTAC activity at CRBN/GSPT1 in human RPMI 8402 cells assessed as decrease in GSPT1 level at 2 uM by immunoblot analysis; type: cell-based
[22] = target: T1, Protein cereblon/Histone-lysine N-methyltransferase NSD2 (Homo sapiens); test: PROTAC activity at CRBN/NSD2 in human SEM cells assessed as induction of NSD2 degradation at 2 uM preincubated for 12 hrs followed by compound washout and measured after 48 hrs by immunoblot analysis; type: cell-based
[23] = target: T1, Protein cereblon/Histone-lysine N-methyltransferase NSD2 (Homo sapiens); test: PROTAC activity at CRBN/NSD2 in human SEM cells assessed as induction of NSD2 degradation at 2 uM measured after 4 to 8 hrs hrs by immunoblot analysis; type: cell-based; conditions: time 4-8 hrs
SEM cells [24] = test: Cytotoxicity against human SEM cells harbouring NSD2 assessed as inhibition of cell growth at 2 uM measured after 9 days by Celltiter-glo assay; type: functional, cell-based; conditions: time 9.0 day
[25] = target: Protein cereblon/Histone-lysine N-methyltransferase, H3 lysine-36 specific (Homo sapiens) (UniProt Q96L73+Q96SW2); test: PROTAC activity at CRBN/NSD1 in human SEM cells assessed as decrease in NSD1 level at 2 uM measured upto 8 hrs by immunoblot analysis; type: cell-based
[26] = target: T1, Protein cereblon/Histone-lysine N-methyltransferase NSD2 (Homo sapiens); test: In vivo PROTAC activity at CRBN/NSD2 in SCID mouse xenografted with human 22Rv1 cells assessed as downregulation of NSD2 level at 60 mg/kg, iv for 5 days by immunohistochemical analysis; type: functional, organism-based; conditions: CWR22R, time 5.0 day
[27] = target: T1, Protein cereblon/Histone-lysine N-methyltransferase NSD2 (Homo sapiens); test: PROTAC activity at CRBN/NSD2 in human RPMI 8402 cells assessed as induction of NSD2 degradation at 2 uM pretreated with UNC6934 for 2 hrs followed by compound addition and measured after 6 to 12 hrs by Western blot analysis; type: cell-based; conditions: time 6-12 hrs
SEM cells [28] = test: Downregulation of CD38 gene expression in human SEM cells measured after 14 days by RNA sequencing assay; type: functional, cell-based; conditions: time 14.0 day
[29] = target: T1, Protein cereblon/Histone-lysine N-methyltransferase NSD2 (Homo sapiens); test: PROTAC activity at CRBN/NSD2 in human RPMI 8402 cells assessed as induction of NSD2 degradation at 2 uM measured after 12 to 24 hrs by immunoblot analysis; type: cell-based; conditions: time 12-24 hrs

T1 sequence (O96028 whole entry, looked up): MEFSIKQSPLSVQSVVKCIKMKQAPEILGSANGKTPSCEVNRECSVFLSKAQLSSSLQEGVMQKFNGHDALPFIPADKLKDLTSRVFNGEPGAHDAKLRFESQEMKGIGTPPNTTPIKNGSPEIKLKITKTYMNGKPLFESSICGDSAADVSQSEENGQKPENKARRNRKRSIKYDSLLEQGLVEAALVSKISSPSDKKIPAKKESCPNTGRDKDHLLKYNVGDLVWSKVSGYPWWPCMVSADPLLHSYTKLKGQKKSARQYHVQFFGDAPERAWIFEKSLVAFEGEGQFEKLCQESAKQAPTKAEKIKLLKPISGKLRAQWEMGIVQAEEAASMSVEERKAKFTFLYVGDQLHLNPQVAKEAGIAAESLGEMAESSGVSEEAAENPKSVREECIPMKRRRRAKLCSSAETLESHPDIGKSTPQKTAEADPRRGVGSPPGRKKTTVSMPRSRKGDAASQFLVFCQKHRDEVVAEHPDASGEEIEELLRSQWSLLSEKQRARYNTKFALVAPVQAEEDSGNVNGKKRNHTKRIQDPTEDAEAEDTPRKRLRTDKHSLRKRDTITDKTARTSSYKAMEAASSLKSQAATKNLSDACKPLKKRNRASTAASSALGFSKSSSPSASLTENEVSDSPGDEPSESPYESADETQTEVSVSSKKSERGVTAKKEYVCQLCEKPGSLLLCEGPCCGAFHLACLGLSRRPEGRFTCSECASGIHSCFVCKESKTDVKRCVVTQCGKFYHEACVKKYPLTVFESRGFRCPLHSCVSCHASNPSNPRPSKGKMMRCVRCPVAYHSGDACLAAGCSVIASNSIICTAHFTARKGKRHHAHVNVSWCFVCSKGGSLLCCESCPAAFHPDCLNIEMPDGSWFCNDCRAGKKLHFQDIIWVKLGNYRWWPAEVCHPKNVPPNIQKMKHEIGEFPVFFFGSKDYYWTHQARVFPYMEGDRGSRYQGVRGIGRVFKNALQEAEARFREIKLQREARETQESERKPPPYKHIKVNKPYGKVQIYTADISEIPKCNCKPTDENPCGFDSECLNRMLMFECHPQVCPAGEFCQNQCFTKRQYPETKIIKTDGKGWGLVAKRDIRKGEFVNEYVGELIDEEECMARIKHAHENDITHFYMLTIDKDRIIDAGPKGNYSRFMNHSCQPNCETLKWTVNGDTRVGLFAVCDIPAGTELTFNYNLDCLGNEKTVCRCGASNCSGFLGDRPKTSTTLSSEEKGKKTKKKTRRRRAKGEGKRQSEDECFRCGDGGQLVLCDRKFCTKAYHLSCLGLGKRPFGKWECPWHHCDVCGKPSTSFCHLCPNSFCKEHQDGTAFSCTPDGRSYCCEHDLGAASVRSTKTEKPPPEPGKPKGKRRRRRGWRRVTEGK
T1 sequence (Q96SW2 whole entry, looked up): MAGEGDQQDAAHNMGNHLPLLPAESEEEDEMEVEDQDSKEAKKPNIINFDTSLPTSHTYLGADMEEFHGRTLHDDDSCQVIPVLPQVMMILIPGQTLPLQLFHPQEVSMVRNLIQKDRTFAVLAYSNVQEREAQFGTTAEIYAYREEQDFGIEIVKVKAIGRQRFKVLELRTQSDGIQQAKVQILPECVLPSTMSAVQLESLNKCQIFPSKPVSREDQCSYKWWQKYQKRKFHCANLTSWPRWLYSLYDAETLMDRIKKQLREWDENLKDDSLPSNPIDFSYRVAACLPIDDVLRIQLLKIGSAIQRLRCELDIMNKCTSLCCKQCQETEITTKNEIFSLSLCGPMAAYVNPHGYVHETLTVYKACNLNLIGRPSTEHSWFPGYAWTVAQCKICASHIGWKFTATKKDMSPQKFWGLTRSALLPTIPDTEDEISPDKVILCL
T2 sequence (P15170 whole entry, looked up): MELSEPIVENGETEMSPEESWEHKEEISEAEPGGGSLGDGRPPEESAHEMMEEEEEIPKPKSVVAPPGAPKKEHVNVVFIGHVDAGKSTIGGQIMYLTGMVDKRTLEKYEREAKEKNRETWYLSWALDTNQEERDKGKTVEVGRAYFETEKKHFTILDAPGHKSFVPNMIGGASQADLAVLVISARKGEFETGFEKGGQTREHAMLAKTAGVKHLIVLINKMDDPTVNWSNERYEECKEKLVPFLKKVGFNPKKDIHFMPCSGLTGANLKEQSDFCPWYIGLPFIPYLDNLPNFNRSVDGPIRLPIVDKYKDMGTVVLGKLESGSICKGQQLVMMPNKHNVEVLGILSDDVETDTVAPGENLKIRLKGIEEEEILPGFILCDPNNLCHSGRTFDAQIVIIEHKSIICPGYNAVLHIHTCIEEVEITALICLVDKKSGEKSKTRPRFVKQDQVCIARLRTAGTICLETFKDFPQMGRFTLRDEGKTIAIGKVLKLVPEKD
T2 sequence (Q96SW2 whole entry, looked up): as the sequence (Q96SW2 whole entry, looked up) above
Chain of Cereblon/Casein kinase I alpha (Homo sapiens) (P48729 2-337 limits assumed): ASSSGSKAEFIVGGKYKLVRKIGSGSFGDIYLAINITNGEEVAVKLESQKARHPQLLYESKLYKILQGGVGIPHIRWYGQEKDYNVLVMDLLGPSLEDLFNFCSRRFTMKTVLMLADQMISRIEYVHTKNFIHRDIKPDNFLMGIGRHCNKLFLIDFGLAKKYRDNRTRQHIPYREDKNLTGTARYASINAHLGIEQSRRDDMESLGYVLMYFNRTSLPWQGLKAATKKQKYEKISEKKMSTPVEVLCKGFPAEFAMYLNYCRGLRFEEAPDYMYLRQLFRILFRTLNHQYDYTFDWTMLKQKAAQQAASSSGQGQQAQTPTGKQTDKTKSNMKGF
Chain of Cereblon/Casein kinase I alpha (Homo sapiens) (Q96SW2 whole entry partner): as the sequence (Q96SW2 whole entry, looked up) above
Chain of Protein cereblon/Histone-lysine N-methyltransferase NSD3 (Homo sapiens) (Q96SW2 whole entry, looked up): as above
Chain of Protein cereblon/Histone-lysine N-methyltransferase NSD3 (Homo sapiens) (Q9BZ95 whole entry, looked up): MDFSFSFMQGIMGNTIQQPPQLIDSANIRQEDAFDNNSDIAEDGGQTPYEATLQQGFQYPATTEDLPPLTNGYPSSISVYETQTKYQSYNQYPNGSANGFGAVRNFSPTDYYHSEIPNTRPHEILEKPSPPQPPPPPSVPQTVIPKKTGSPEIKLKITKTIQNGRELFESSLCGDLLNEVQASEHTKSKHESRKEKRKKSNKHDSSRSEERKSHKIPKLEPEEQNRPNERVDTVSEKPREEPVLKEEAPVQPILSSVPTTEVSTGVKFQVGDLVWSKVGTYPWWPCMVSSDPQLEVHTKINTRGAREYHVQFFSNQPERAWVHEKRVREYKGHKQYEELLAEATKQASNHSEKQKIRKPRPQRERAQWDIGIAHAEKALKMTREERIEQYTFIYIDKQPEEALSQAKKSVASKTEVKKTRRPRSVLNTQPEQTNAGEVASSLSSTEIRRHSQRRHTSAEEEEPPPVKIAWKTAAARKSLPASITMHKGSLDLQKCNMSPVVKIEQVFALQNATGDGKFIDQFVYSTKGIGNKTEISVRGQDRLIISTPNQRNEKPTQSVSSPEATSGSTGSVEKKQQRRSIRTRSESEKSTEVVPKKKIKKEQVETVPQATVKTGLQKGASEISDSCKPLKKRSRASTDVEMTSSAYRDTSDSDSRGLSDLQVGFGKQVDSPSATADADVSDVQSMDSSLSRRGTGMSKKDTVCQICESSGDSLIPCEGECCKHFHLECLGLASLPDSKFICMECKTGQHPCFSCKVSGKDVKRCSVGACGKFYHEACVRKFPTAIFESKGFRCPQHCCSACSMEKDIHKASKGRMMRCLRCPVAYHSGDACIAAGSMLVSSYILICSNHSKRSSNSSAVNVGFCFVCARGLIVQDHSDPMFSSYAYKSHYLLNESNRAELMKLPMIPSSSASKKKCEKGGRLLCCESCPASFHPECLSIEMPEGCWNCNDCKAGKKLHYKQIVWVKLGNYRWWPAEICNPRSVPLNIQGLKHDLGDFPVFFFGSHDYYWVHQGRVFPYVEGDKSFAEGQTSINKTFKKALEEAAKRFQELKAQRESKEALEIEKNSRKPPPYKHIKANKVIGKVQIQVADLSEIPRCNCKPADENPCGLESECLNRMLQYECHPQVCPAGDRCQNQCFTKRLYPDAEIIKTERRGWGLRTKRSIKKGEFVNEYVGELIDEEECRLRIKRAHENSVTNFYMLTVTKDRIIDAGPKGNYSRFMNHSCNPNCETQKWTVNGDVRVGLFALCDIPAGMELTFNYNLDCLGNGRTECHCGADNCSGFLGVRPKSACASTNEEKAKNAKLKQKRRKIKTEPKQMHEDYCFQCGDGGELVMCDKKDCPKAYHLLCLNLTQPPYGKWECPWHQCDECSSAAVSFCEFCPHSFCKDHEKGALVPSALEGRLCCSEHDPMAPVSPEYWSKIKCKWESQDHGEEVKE
Chain of Protein cereblon/Zinc finger protein Aiolos (Homo sapiens) (Q96SW2 whole entry, looked up): as the sequence (Q96SW2 whole entry, looked up) above
Chain of Protein cereblon/Zinc finger protein Aiolos (Homo sapiens) (Q9UKT9 whole entry, looked up): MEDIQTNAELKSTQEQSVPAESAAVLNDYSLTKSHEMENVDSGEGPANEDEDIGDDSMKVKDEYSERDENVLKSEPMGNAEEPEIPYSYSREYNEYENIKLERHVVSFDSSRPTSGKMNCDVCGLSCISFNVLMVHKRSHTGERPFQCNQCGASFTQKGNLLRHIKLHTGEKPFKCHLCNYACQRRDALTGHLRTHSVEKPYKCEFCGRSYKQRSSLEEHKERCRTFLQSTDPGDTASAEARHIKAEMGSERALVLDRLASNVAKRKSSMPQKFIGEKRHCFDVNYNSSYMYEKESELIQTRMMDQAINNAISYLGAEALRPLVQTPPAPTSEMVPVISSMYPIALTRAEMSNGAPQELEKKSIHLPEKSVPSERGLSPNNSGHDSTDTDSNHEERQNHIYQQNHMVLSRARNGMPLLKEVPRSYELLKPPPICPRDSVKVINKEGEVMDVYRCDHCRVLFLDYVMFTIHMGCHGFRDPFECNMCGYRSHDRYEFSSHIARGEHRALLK

Activity [1]: Active | Activity [2]: Active | Activity [3]: Dose-Dependent Effect | Activity [4]: Active | Activity [5]: Active | Activity [7]: Active | Activity [8]: inactive | Activity [9]: Active | Activity [10]: inactive | Activity [11]: inactive | Activity [12]: Active | Activity [13]: Active | Activity [14]: inactive | Activity [15]: Active | Activity [16]: Active | Activity [17]: Active | Activity [18]: inactive | Activity [19]: Active | Activity [20]: inactive | Activity [21]: Active | Activity [22]: inactive | Activity [23]: Active | Activity [25]: inactive | Activity [26]: Active | Activity [27]: inactive | Activity [29]: Active
SMILES: O=C1CCC(N2C(=O)c3ccc(N4CCC(NC(=O)c5ccc(NC(=O)c6ccc(CN(C(=O)c7ccc8c(c7)OCC(=O)N8)C7CC7)cc6)cc5)CC4)cc3C2=O)C(=O)N1 (stereo not given)
Activity (SEM cells [6]): Active | Activity (RPMI 8402): Active | Activity (SEM cells [24]): Active | Activity (SEM cells [28]): Active
